Source: publication PMC9411704, “Assessment of the Carcinogenic Potential of Pretomanid in Transgenic Tg.rasH2 Mice” (International Journal of Toxicology, 2022)

What was measured:
[1] = design: method as in unpublished data; conditions: humans, 14C-labelled pretomanid; ref unpublished data; cited from earlier work
CHO-K1 cells = assay: Chromosome aberration assay in CHO cells
Description: CHO-K1 cells (American Type Culture Collection) were exposed to pretomanid at 22.5 to 360 μg/mL for 4 hours with and without added S9 mix and for 20 hours without added S9 mix. All cells were harvested 20 hours after treatment initiation. The assay was performed using standard procedures, [13] including duplicate cultures and appropriate negative and positive controls. Under each set of conditions, three test concentrations were evaluated. The highest was the lowest precipitating concentration, and two additional lower concentrations also were evaluated.
After incubation, cells were harvested and placed on slides, which were examined microscopically to determine relative mitotic index and to evaluate metaphase spreads for structural or numerical chromosome aberrations. Where possible, 200 metaphase spreads were evaluated. The mean numbers of aberrations in various cultures were compared to reach conclusions about assay validity and clastogenic potential.

[2] = test system: CD-1(ICR) BR mice, bone marrow erythrocytes; assay: Bone marrow micronucleus assay in mice; assay type: in vivo
Description: Groups of male CD-1®(ICR) BR mice were given single oral doses of vehicle (0.4% CMC), positive control article, or pretomanid at 125, 500 or 2000 mg/kg and then were euthanized approximately 24 or 48 hours later to harvest femoral bone marrow. Bone marrow was mounted on slides and stained with May-Grünwald solution and Giemsa. For each mouse, 500 red blood cells were examined to determine the ratio of immature red blood cells (polychromatophilic erythrocytes or PCEs) to mature red blood cells (normochromatophilic erythrocytes of NCEs) and 2000 PCEs were examined to determine the ratio of micronucleated PCEs (mnPCEs) to normal PCEs.
The mean PCE-to-NCE ratios in various groups were compared to reach conclusions about assay validity and effects on erythropoiesis. The mean mnPCE-to-PCE ratios in various groups were compared to reach conclusions about assay validity and clastogenicity. Comparisons were made using an analysis of variance on untransformed mnPCE-to-PCE ratios for each mouse and on untransformed PCE-to-NCE ratios when the variances were homogeneous. Ranked proportions were used for heterogeneous variances. […] Comparisons were made at the 5% probability level.

[3] = Plasma exposure in the mouse micronucleus study; assay type: in vivo, mice
mouse lymphoma cells = assay: Non-GLP in vitro mouse lymphoma assay; assay type: cell-based; conditions: concentrations up to 1000 μg/mL, data not shown

## O=[N+]([O-])c1cn2c(n1)OC[C@@H](O)C2 [M50]
[1]
  M50 metabolite as % of the parent compound: ~6%

## O=[N+]([O-])c1cn2c(n1)OC[C@@H](OCc1ccc(OC(F)(F)F)cc1)C2 [Pretomanid, (6S)-2-nitro-6-{[4-(trifluoromethoxy)benzyl]oxy}-6,7-dihydro-5H-imidazo[2,1-b][1,3]oxazine]
CHO-K1 cells; 22.5 to 360 μg/mL, 4 h ±S9, 20 h −S9
  Cytotoxicity in CHO cells: no cytotoxicity was observed
CHO-K1 cells; any concentration, P>0.05
  Frequency of chromosome aberrations: did not significantly increase
CHO-K1 cells; up to 360 μg/mL, 4 h ±S9, 20 h −S9
  Clastogenic potential in mammalian cells in vitro: negative
[2]; any dose level (125, 500, 2000 mg/kg), 24 or 48 h
  mnPCE-to-PCE ratio: did not significantly increase
[2]; single oral 125, 500 or 2000 mg/kg
  Effect on erythropoiesis (PCE:NCE ratio): did not affect erythropoiesis
[2]; single oral doses up to 2000 mg/kg
  Clastogenic potential in vivo: negative
[3]; male, CD-1(ICR) BR, mouse, single oral dose 2000 mg/kg, plasma
  Cmax: 36000 ng/mL
[3]; male, CD-1(ICR) BR, mouse, single oral dose 2000 mg/kg, plasma, read-out: Mean AUClast
  AUC(0-t): 1140 µg·h/mL
[3]; single oral 125 to 2000 mg/kg
  Dose proportionality of plasma exposure (Cmax and AUC): increased less than proportionally with dose level
Mouse lymphoma cells
  Genotoxicity in mouse lymphoma assay: negative
